Source: ChEMBL document CHEMBL4619734, “Molecule Property Analyses of Active Compounds for Mycobacterium tuberculosis” (J Med Chem, 2020)
≈ marks a conversion by molar mass, not a printed value.

Key:
Type in all cases: functional
[1] = test system: Mycobacterium tuberculosis; assay: Antitubercular activity against Mycobacterium tuberculosis harboring mmpL3
[2] = test system: Mycobacterium tuberculosis; assay: Antimycobacterial activity against multi drug-resistant Mycobacterium tuberculosis H37Rv
[3] = test system: Mycobacterium tuberculosis; assay: Antimycobacterial activity against multi drug-resistant Mycobacterium tuberculosis
[4] = test system: Mycobacterium tuberculosis; assay: Antimycobacterial activity against multi drug-resistant Mycobacterium tuberculosis expressing WecA
[5] = test system: Mycobacterium tuberculosis; assay: Antimycobacterial activity against Mycobacterium tuberculosis drug resistant clinical isolates

SMILES: Cc1c(CN2CCN(c3ccc(C(F)(F)F)cc3)CC2)cc(-c2ccccc2)n1NC(=O)c1ccncc1
- MIC [1]: 0.025 to 0.12 µg/mL (≈ 0.0481 to 0.231 µM)

SMILES: Cc1c(CN2CCN(C)CC2)cc(-c2ccc(Cl)cc2)n1-c1ccc(Cl)cc1
- MIC [1]: 0.7 to 6.2 µg/mL (≈ 1.69 to 15 µM)

SMILES: Cc1cc2nc(CCc3cc(Cl)cc(Cl)c3)[nH]c2cc1C
- MIC90 [2]: 5 µM (≈ 1.6 µg/mL)

SMILES: CC/N=c1\cc2n(-c3ccc(C(F)(F)F)cc3)c3ccccc3nc-2cc1Nc1ccc(C(F)(F)F)cc1
- MIC [3]: 0.25 µg/mL (≈ 0.475 µM)

SMILES: CCN(CC)C/N=c1\cc2n(-c3ccc(Cl)c(Cl)c3)c3ccccc3nc-2cc1Nc1ccc(Cl)c(Cl)c1
- MIC [3]: 0.12 µg/mL (≈ 0.205 µM)

SMILES: CCCCc1ccc(NC(=O)C2=CCN(C)C(C(O[C@@H]3O[C@H](CN)[C@@H](O)[C@H]3O)[C@H]3OC(n4ccc(=O)[nH]c4=O)[C@H](O)[C@@H]3O)C(=O)N2C)cc1 (stereo partly specified)
- MIC [4]: 6.25 µg/mL (≈ 9.07 µM)

SMILES: Cc1c(CN2CCSCC2)cc(-c2ccc(F)cc2)n1-c1ccccc1
- MIC [1]: 0.5 µg/mL (≈ 1.36 µM)

SMILES: CC(C)/N=c1\cc2n(-c3ccc(Cl)cc3)c3ccccc3nc-2cc1Nc1ccc(Cl)cc1 [CLOFAZIMINE]
- MIC [3]: 1 µg/mL (≈ 2.11 µM)

SMILES: C[C@]1(COc2ccc(N3CCC(Oc4ccc(OC(F)(F)F)cc4)CC3)cc2)Cn2cc([N+](=O)[O-])nc2O1 [DELAMANID]
- MIC [5]: 0.01 µg/mL (≈ 0.0187 µM)

SMILES: O=[N+]([O-])c1cn2c(n1)OC[C@@H](OCc1ccc(OC(F)(F)F)cc1)C2 [PRETOMANID]
- MIC90 [5]: 0.531 µg/mL (≈ 1.48 µM)

SMILES: CC(C)=CCC/C(C)=C/CNCCNC1C2CC3CC(C2)CC1C3 (stereo unspecified) [SQ109]
- MIC [1]: 0.16 to 0.64 µg/mL (≈ 0.484 to 1.94 µM)
